Here are results for 5 molecules from article PMC9011347, “Small-Molecule Inhibitors Targeting Lipolysis in Human Adipocytes” (Journal of the American Chemical Society, 2022).

In general, IC50 refers to the midpoint of a concentration-inhibition curve. Higher therefore signals weaker potency in that assay.

The target in test [1] is T1, human ATGL (Homo sapiens, UniProt Q96AD5).
T1 construct: host or cells: Expi293 cells, crude lysate
T1 sequence (Q96AD5 1-504): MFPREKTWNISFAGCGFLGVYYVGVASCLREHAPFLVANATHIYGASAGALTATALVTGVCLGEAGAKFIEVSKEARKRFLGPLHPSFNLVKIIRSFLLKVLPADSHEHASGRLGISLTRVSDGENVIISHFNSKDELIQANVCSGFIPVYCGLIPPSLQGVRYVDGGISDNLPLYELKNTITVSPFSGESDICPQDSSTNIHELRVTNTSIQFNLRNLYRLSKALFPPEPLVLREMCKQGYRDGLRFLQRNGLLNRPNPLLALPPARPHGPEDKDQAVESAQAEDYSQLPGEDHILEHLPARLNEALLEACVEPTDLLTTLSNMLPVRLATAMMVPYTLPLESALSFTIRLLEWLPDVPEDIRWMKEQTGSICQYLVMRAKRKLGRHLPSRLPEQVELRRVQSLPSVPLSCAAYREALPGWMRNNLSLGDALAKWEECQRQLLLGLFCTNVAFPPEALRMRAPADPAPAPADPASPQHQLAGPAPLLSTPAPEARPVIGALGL
The test can be described thus: TAG hydrolase assay, lysates of Expi293 cells overexpressing ATGL, purified CGI-58, radiolabeled triolein. Particulars: inhibition of TAG hydrolase activity of human ATGL, Expi293 lysates, purified CGI-58, radiolabeled triolein. Format: biochemical. The source says: We previously developed Atglistatin (Ai), a selective inhibitor of mouse ATGL,[31],[32] which is ineffective against human ATGL.[17] Ai acts as a competitive inhibitor targeting the minimal active domain of ATGL ranging from aa 1–254.[33] This domain is highly conserved in different mammalian species (∼90% identity, Table 1) and comprises the patatin-like domain, eponymous for all members of the patatin-like phospholipase domain-containing (PNPLA) protein family.[34] We first investigated the species selectivity of Ai by performing TAG hydrolase assays[35] with lysates from Expi293 cells expressing ATGL orthologues of different species. The activity of ATGL is strongly stimulated by the co-activator protein comparative gene identification-58 (CGI-58, also known as α/β hydrolase domain containing 5, ABHD5)[36] and can be suppressed by the inhibitory protein G0/G1 switch 2 (G0S2).[37] We therefore determined ATGL activity in the presence and absence of mouse CGI-58, mouse G0S2, and Ai. As shown in Figure 1a–i, all ATGL orthologues were expressed, enzymatically active, stimulated by mouse CGI-58, and inactivated by mouse G0S2. Ai inhibited mouse (Figure 1a), rat (Figure 1b), goat (Figure 1c), dog (Figure 1e), and marmoset ATGL (Figure 1f), but not pig (Figure 1d), rhesus monkey (Figure 1g), or human ATGL (Figure 1h).
To develop an inhibitor for human ATGL, we screened compounds synthesized in the course of the development of Ai.[31] Screenings were performed in the presence of purified CGI-58 using cell lysates of Expi293 cells overexpressing ATGL as a source of enzymatic activity and radiolabeled triolein as substrate as described above (Figure 1). […] In an iterative optimization process, which encompassed the synthesis and testing of >150 compounds (not shown), we varied the nature of the top aryl ring (Figure 2a). Replacement of the top phenyl group with a pyridine moiety (compound 2) led to a significant improvement in inhibitor efficacy (IC50 = 3 μM), which we interpret as a result from a smaller angle between the 1,3-arrangement of the aryl- and the ester-substituents due to the shorter C–N bond length within the pyridine group. […] The introduction of a methoxy residue at this position finally led to compound NG-497 showing an IC50 value of 1 μM.
Experimental details, materials, and methods
Expression of recombinant ATGL constructs and preparation of cell lysates. Expi293 cells were cultivated in Expi293 Expression Medium (GIBCO, Thermo Fisher Scientific, Waltham, USA) at standard conditions (37°C, 5% CO2, 95% humidified atmosphere, 125 rpm). DNA constructs containing ATGL from different species and chimeric ATGL variants in pcDNA3.1(+)myc-His C Vector were obtained from BioCat GmbH (Heidelberg, Germany). Cells were transfected with ExpiFectamine293 Transfection Kit (GIBCO) in Opti-Mem reduced serum medium (GIBCO) according to the manufacturer’s instructions. After 48 h, cells were harvested by centrifugation and washed three times with PBS. Cells were disrupted in buffer A (0.25 M sucrose, 1 mM EDTA, 1 mM dithiothreitol, 20µg/ml leupeptin, 2 µg/ml antipain, 1 µg/ml pepstatin, pH 7.0) by sonication (Virsonic 475, Virtis, Gardiner, USA). Nuclei and debris were removed by centrifugation at 1,000 g and 4°C for 10 min. Protein concentrations were determined using Bio-Rad protein assay (Bio-Rad 785, Bio-Rad Laboratories, Munich, Germany) using BSA as standard.
Expression and purification of mouse CGI-58. CGI-58 was expressed and purified as described 1. In brief, the coding sequence of mouse Cgi-58 was cloned into pHis-Sumo and co-transformed with the plasmid pTf16 expressing the chaperone Tig into E. coli BL21(DE3). Cells were cultured overnight at 37°C and 180 rpm in the presence of 40 µg/ml kanamycin and 34 µg/ml chloramphenicol. Thereafter, cells were transferred into fresh LB medium, grown until OD600 of 0.6, and expression was induced […]
by the addition of 0.5 mM IPTG. […]

Test [2] deals with T2, PNPLA1 (Homo sapiens, UniProt Q8N8W4).
T2 construct: expressed in transfected cells; host or cells: HEK293T cells
Briefly: PNPLA1-dependent ω-O-acylceramide formation in HEK293T cells. Format: cell-based. Particulars: NG-497 40 µM, Orlistat 40 µM. On the procedure:
Fig. S3: Investigation of off-target effects of NG-497 on structurally and functionally related lipid hydrolases. (a) PNPLA1-dependent formation of acylceramides was monitored in a cell-based assay in HEK293T cells. Experiments were performed in the presence or absence of NG-497 (40 µM) and the non-selective lipase inhibitor Orlistat (40 µM). Orlistat, but not NG-497, inhibited PNPLA1/CGI-58-dependent ω-O-acylceramide formation. (b-h) Enzymes were overexpressed in Expi293 cells and cell lysates were used as source of enzymatic activity. […] Experiments were performed in the presence or absence of NG-497 (100 µM) and the formation of reaction products was monitored. […]
Data were calculated relative to the basal activity detected in LacZ-transfected controls. […]
LPL activity was inhibited using an anti-LPL antibody. All data are presented as mean ± S.D. Statistical significance was determined via ANOVA followed by Bonferroni post hoc test ( ***, p < 0.001). […]
Released free fatty acids were quantified via NEFA C kit (Fujifilm Wako Chemicals, Neuss, Germany) and release of p-nitrophenol was measured at 405 nm. […] Cellular ω-O-acylceramide formation was monitored using [1-14C]linoleic acid as tracer. […] The activity of purified human pancreatic lipase (MilliporeSigma #SRE0028) was determined as previously described7 in the presence or absence of NG-497 (100µM) or Orlistat (20 µM). […]

T2 sequence (Q8N8W4 whole entry): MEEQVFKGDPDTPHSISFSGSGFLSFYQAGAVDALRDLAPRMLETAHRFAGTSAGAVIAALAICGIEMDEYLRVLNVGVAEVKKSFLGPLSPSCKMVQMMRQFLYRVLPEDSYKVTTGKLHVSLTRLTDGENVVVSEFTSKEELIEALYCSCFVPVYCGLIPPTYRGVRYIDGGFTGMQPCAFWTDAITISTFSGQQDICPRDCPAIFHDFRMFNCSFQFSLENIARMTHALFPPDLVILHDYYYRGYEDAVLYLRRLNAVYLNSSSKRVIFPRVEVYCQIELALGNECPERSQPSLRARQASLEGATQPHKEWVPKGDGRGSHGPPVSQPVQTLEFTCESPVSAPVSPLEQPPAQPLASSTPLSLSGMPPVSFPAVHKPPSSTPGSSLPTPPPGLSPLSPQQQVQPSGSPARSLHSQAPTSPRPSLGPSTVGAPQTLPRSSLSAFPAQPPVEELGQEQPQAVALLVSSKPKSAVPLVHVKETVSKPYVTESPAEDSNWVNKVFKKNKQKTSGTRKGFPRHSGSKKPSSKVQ

Consider `CCOC(=O)c1cccc(-c2ccc(OCC)cc2)n1` [compound 2], for which, in test [1], the half-inhibitory concentration (IC50) turned out to be 3000 nM. Molecule `CCOc1ccc(-c2cc(C)cc(C(=O)OC(C)C)n2)cc1` [compound 4] came in with an IC50 in test [1] of 1600 ± 100 nM. For the molecule `CCCCCCCCCCC[C@@H](C[C@@H]1OC(=O)[C@H]1CCCCCC)OC(=O)[C@H](CC(C)C)NC=O` [Orlistat, reference compound], the “PNPLA1/CGI-58-dependent ω-O-acylceramide formation” value in test [2] was “inhibited”. Consider `CCOC(=O)c1cccc(-c2ccc(OCC)cc2)c1` [compound 1], for which, in test [1], the IC50 is 35000 nM. Same read-out and setting: as for `CCOc1ccc(-c2cccc(C(=O)OC(C)C)n2)cc1` [compound 3], the figure is 1800 nM.
